Laboratory results: patent US8653049B2, “Normuramyl glycopeptide compounds” (priority 2008, dated 2014)
Several values for one entry are separate records, joined by “and”; a condition that tells them apart may be missing. Equal entries are not always repeated.

Assays:
[1] = test system: C. albicans strain 2091; test: Stimulation of innate immunity to Candida albicans infection, survival; conditions: s.c. 24 h after i.v. infection, vs PBS control, FIG. 20
[2] = rabbits, liposomal preparations s.c. 100 nmol/kg, 3 rabbits per group; passes if below 1.1° C.
Method in brief: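 Pyrogenicity was tested in New Zealand albino rabbits (3 per group) given liposomal preparations at 100 nmol/kg s.c., with temperature taken at 1, 2, 3, 4, 6 and 24 h. Controls were empty liposomes, liposomal and free MDP (50.7 nmol/kg) and B30-norAbu-MDP. A pass required summed ΔTmax below 1.1 °C.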

[3] = test system: Trichophyton mentagrophytes TM 179; test: Adjuvant activity for hsp60 DNA vaccine against ringworm; type: in vivo, guinea pigs; parameters: key: semi-quantitative 0 to +++ method (where U=ulceration) for evaluation of dermal reactions, i.e. pathological lesions; semi-quantitative 0 to +++ method (where U=ulceration) for evaluation of dermal reactions, i.e. pathological lesions; semi-quantitative 0 to +++ method (where U=ulceration) for evaluation of dermal reactions, i.e. pathological lesions; semi-quantitative 0 to +++ method (where U=ulceration) for evaluation of dermal reactions, i.e. pathological lesions; U=ulceration; conditions: per animal
[4] = test system: S. typhimurium; test: Stimulation of innate immunity against Salmonella Typhimurium; type: in vivo, BALB/c mice; conditions: liposomal preparations
Text: Test compounds at doses of 5, 10, 25, 50, 100 and 200 nmol per mouse were applied in., s.c., i.v., or p.o. 3 and 1 days before experimental infection (10 animals per group). Various organs (intestines, liver, spleen, lungs) were examined for the presence of salmonellae on day 30 post infection. Results were expressed as numbers of colony forming units (CFU) of S. typhimurium per 1 gram of tissue. Statistically significant differences in numbers of CFU between the individual experimental groups were calculated by one-way analysis of variance.

[5] = test system: Salmonella enteritidis; test: Stimulation of innate immunity against Salmonella Enteritidis
[6] = group 1: 200 μg adjuvant at −48 h + 20 μg DNA
[7] = group 2: 200 μg adjuvant at −24 h + 20 μg DNA
[8] = group 3: 200 μg adjuvant at 0 h + 20 μg DNA
[9] = group 4: 200 μg adjuvant at +24 h + 20 μg DNA
[10] = liposomal, 20 nmol per dose p.o. 72 and 24 h before infection (LD50), 5 mice

With `CCCCCCCCCCCCCCC(CCCCCCCCCCCCCC)C(=O)OC[C@H]1OC(O)[C@H](NC(C)=O)[C@@H](OCC(=O)N[C@@H](CC)C(=O)N[C@H](CCC(=O)O)C(N)=O)[C@@H]1O` (stereo partly shown) [B30-norAbu-MDP] the “survival time and survival rate in C. albicans infection” value ([1]; listed as free (non-liposomal) B30-norAbuMDP) was “lesser effect”, the “survival time and survival rate in C. albicans infection” value ([1]; listed as free B30-Nor-abuMDP) was “No effect” and the “+ΔTmax (Sum of ΔTmax)” value [2] was 0.5 °C. For the same compound, the “Skin reaction Day 12” value ([3]; group 1: 200 μg adjuvant at −48 h + 20 μg DNA electroporation prime and boost) was “+ and ++”, the “Skin reaction Day 21” value [3, 6] was “+++ (2×) and ++ (2×)” and the “Skin reaction Day 28” value [3, 6] was “+”. The “Skin reaction Day 12” value ([3]; group 2: 200 μg adjuvant at −24 h + 20 μg DNA electroporation prime and boost) was “+++ (2×) and ++”, the “Skin reaction Day 21” value [3, 7] was “++ (2×) and + (2×)” and the “Skin reaction Day 28” value [3, 7] was “+ (2×) and 0”. The “Skin reaction Day 12” value ([3]; group 3: 200 μg adjuvant at 0 h + 20 μg DNA electroporation prime and boost) was “+++ and + (2×)”, the “Skin reaction Day 21” value [3, 8] was “+” and the “Skin reaction Day 28” value [3, 8] was 0. For the same compound, the “Skin reaction Day 12” value ([3]; group 4: 200 μg adjuvant at +24 h + 20 μg DNA electroporation prime and boost) was “+++ and + (2×)”, the “Skin reaction Day 21” value [3, 9] was “++” and the “Skin reaction Day 28” value [3, 9] was “+ (2×) and 0 (2×)”. For the same compound, the “induction of immune responses in intestines” value [4] was “able to induce immune responses in intestines”, the “protective effect / survival rate in S. Enteritidis infection” value ([5]; 0 or 1 case of death by day 12) was “good protective effects” and the “Day 6 Intest.: clear/infected/dead” value [5, 10] was 5/0/0. For the same compound, the “Day 6 Liver: clear/infected/dead” value [5, 10] was 4/1/0, the “Day 6 Lungs: clear/infected/dead” value [5, 10] was 5/0/0 and the “Day 6 Spleen: clear/infected/dead” value [5, 10] was 4/1/0. For the same compound, the “Day 12 Intest.: clear/infected/dead” value [5, 10] was 4/0/1, the “Day 12 Liver: clear/infected/dead” value [5, 10] was 4/0/1 and the “Day 12 Lungs: clear/infected/dead” value [5, 10] was 4/0/1. The “Day 12 Spleen: clear/infected/dead” value [5, 10] was 4/0/1.
